Test results from patent US20260048062A1, “FUSED AMINO PYRIMIDINE COMPOUNDS FOR TREATMENT OF PSYCHOSIS AND PSYCHOTIC DISORDERS” (Ovid Therapeutics Inc., priority 2024, published 2026).

What was measured:
KCC2 = target: T1, KCC2 (Homo sapiens, UniProt Q9H2X9); assay: FLIPR Tl+ flux assay, HEK-293 cells expressing KCC2; type: cell-based; conditions: saturating concentration of 3 μM, 1% BCD vehicle
T1 construct: expressed in transfected cells; host or cells: HEK-293 (ATCC CRL-1573), transient transfection
T1 sequence (Q9H2X9 1-1116 isoform Q9H2X9-2): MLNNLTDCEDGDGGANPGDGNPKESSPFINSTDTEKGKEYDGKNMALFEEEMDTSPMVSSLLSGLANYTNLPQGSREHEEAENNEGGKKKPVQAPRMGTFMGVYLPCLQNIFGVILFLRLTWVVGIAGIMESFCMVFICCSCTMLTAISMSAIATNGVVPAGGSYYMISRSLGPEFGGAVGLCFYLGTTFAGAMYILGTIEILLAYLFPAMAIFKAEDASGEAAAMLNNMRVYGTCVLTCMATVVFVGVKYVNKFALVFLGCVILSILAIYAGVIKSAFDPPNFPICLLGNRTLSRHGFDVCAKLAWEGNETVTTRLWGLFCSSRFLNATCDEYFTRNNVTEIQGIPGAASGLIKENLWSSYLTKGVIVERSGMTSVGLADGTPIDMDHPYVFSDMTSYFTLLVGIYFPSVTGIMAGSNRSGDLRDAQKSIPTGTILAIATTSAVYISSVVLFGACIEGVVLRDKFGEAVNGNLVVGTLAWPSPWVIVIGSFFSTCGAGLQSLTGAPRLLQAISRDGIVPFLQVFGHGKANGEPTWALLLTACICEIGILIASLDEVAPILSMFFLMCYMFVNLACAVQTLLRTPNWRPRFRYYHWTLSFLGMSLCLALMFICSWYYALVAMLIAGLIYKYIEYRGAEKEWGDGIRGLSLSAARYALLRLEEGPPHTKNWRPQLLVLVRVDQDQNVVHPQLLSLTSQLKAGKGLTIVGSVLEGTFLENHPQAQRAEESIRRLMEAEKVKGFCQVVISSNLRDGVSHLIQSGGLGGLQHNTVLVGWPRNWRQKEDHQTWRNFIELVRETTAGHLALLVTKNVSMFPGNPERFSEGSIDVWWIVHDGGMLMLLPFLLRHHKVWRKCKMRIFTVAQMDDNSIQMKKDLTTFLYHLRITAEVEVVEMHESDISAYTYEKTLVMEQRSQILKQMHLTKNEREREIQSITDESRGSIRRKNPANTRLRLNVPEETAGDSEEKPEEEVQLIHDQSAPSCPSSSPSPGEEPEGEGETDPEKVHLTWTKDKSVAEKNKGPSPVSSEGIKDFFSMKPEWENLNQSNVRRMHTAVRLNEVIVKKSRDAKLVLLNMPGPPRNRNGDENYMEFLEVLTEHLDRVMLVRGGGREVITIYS
Experimental: A multi-tiered high-throughput screening assay was used, leveraging a proprietary library of 1.3 million small molecule compounds from AstraZeneca (Cambridge, UK) to identify chemical entities capable of activating KCC2. A single point concentration of 30 μM was used to identify potassium flux using an established thallium (TI+) influx FLIPR assay as the primary read out in HEK-293 cells overexpressing KCC2 (Cardarelli et al., Nat. Med. 23, 1394-1396 (2017); Conway et al., J Biol Chem 292, 21253-21263 (2017); Lee et al., 2022, supra).
Cell Culture and biotinylation. […]
FLIPR TI Flux assay. HEK-293 cells were washed with HBSS, and then incubated with loading buffer containing TI sensitive fluorescent dye (https://www.moleculardevices.com), 20 μM bumetanide 20 μM ouabain and 2.5 mM probenecid for 1 h at room temperature (RT) under control conditions or with drugs in the dark using a FlexStation 3 microplate reader (Molecular Devices) and imaged […] for 30 min. Stimulus buffer was added containing 5 mM K^+/0.5 mM Tl^+ and cells were imaged every 1.5 over a 190 second time course The initial rate Tl^+ uptake (Relative Fluorescence Units (RFU) per second) was determined following addition of the stimulus buffer as outlined previously (Conway et al., 2017, supra) (Lee et al., 2022, supra). […]

hippocampus = assay: Neuronal cell death in the hippocampus, Compound A with diazepam; type: in vivo; conditions: mice, Compound A and diazepam vs diazepam alone

Compound: C[C@@H]1CN(c2nc3c(c(Nc4ccc(C5CCCCC5)cc4)n2)COC3)CCO1 [Compound A, (R)—N-(4-cyclohexylphenyl)-2-(2-methylmorpholino)-5,7-dihydrofuro[3,4-d]pyrimidin-4-amine]
- maximum potentiation of KCC2 (KCC2): 90%
- neuronal cell death in the hippocampus (hippocampus): significantly reduced
